Measurements as given in PubChem BioAssay (NCI).
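Cells were grown in 96-well plates and exposed to each compound for 48 hours at five concentrations; endpoints were interpolated linearly between bracketing concentrations, or set to the highest concentration if not reached. TGI: concentration producing complete growth inhibition.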

Legend:
Assay in all cases: NCI-60 cell line screen, 48 h
786-0 renal = system: 786-0 renal
A498 renal = system: A498 renal
A549 NSCLC = system: A549 NSCLC
ACHN renal = system: ACHN renal
BT-549 breast = system: BT-549 breast
CAKI-1 renal = system: CAKI-1 renal
COLO 205 colon = system: COLO 205 colon
DU-145 prostate = system: DU-145 prostate
EKVX NSCLC = system: EKVX NSCLC
HCT-116 colon = system: HCT-116 colon
HCT-15 colon = system: HCT-15 colon
HOP-62 NSCLC = system: HOP-62 NSCLC
HOP-92 NSCLC = system: HOP-92 NSCLC
HT29 colon = system: HT29 colon
IGROV1 ovarian = system: IGROV1 ovarian
KM12 colon = system: KM12 colon
LOX IMVI melanoma = system: LOX IMVI melanoma
M14 melanoma = system: M14 melanoma
MALME-3M melanoma = system: MALME-3M melanoma
MDA-MB-231 breast = system: MDA-MB-231 breast
MDA-MB-435 = system: MDA-MB-435
MDA-N = system: MDA-N
MOLT-4 leukemia = system: MOLT-4 leukemia
NCI-H226 lung = system: NCI-H226 lung
NCI-H23 lung = system: NCI-H23 lung
NCI-H460 lung = system: NCI-H460 lung
NCI-H522 lung = system: NCI-H522 lung
NCI/ADR-RES ovarian = system: NCI/ADR-RES ovarian
OVCAR-3 ovarian = system: OVCAR-3 ovarian
OVCAR-4 ovarian = system: OVCAR-4 ovarian
OVCAR-5 ovarian = system: OVCAR-5 ovarian
OVCAR-8 ovarian = system: OVCAR-8 ovarian
RPMI-8226 leukemia = system: RPMI-8226 leukemia
RXF 393 renal = system: RXF 393 renal
SF-268 CNS = system: SF-268 CNS
SF-295 CNS = system: SF-295 CNS
SF-539 CNS = system: SF-539 CNS
SK-MEL-28 melanoma = system: SK-MEL-28 melanoma
SK-MEL-5 melanoma = system: SK-MEL-5 melanoma
SK-OV-3 ovarian = system: SK-OV-3 ovarian
SN12C renal = system: SN12C renal
SNB-19 CNS = system: SNB-19 CNS
SNB-75 CNS = system: SNB-75 CNS
SW-620 colon = system: SW-620 colon
T-47D breast = system: T-47D breast
TK-10 renal = system: TK-10 renal
U251 CNS = system: U251 CNS
UACC-257 melanoma = system: UACC-257 melanoma
UO-31 renal = system: UO-31 renal
CCRF-CEM leukemia = system: CCRF-CEM leukemia
HCC-2998 colon = system: HCC-2998 colon
HL-60(TB) leukemia = system: HL-60(TB) leukemia
HS 578T breast = system: HS 578T breast
K-562 leukemia = system: K-562 leukemia
MCF7 breast = system: MCF7 breast
SR leukemia = system: SR leukemia
UACC-62 melanoma = system: UACC-62 melanoma

With `CC(C)[Si](OC1=C(C(=O)N(C)c2ccccc2Cl)CCCCC1)(C(C)C)C(C)C` the TGI (786-0 renal) was over 100 µM, the TGI (A498 renal) was over 100 µM and the TGI (A549 NSCLC) was over 100 µM. It also gave a TGI (ACHN renal) of over 100 µM, a TGI (BT-549 breast) of over 100 µM and a TGI (CAKI-1 renal) of over 100 µM. For the same molecule, the TGI (COLO 205 colon) was over 100 µM, the TGI (DU-145 prostate) was over 100 µM and the TGI (EKVX NSCLC) was over 100 µM. It also gave a TGI (HCT-116 colon) of over 100 µM, a TGI (HCT-15 colon) of over 100 µM and a TGI (HOP-62 NSCLC) of over 100 µM. The TGI (HOP-92 NSCLC) was over 100 µM, the TGI (HT29 colon) was over 100 µM and the TGI (IGROV1 ovarian) was over 100 µM. For the same molecule, the TGI (KM12 colon) was over 100 µM, the TGI (LOX IMVI melanoma) was over 100 µM and the TGI (M14 melanoma) was over 100 µM. For the same molecule, the TGI (MALME-3M melanoma) was over 100 µM, the TGI (MDA-MB-231 breast) was over 100 µM and the TGI (MDA-MB-435) was over 100 µM. The TGI (MDA-N) was over 100 µM, the TGI (MOLT-4 leukemia) was over 100 µM and the TGI (NCI-H226 lung) was over 100 µM. The TGI (NCI-H23 lung) was over 100 µM, the TGI (NCI-H460 lung) was over 100 µM and the TGI (NCI-H522 lung) was over 100 µM. The TGI (NCI/ADR-RES ovarian) was over 100 µM, the TGI (OVCAR-3 ovarian) was over 100 µM and the TGI (OVCAR-4 ovarian) was over 100 µM. For the same molecule, the TGI (OVCAR-5 ovarian) was over 100 µM, the TGI (OVCAR-8 ovarian) was over 100 µM and the TGI (RPMI-8226 leukemia) was over 100 µM. For the same molecule, the TGI (RXF 393 renal) was over 100 µM, the TGI (SF-268 CNS) was over 100 µM and the TGI (SF-295 CNS) was over 100 µM. It also gave a TGI (SF-539 CNS) of over 100 µM, a TGI (SK-MEL-28 melanoma) of over 100 µM and a TGI (SK-MEL-5 melanoma) of over 100 µM. For the same molecule, the TGI (SK-OV-3 ovarian) was over 100 µM, the TGI (SN12C renal) was over 100 µM and the TGI (SNB-19 CNS) was over 100 µM. For the same molecule, the TGI (SNB-75 CNS) was over 100 µM, the TGI (SW-620 colon) was over 100 µM and the TGI (T-47D breast) was over 100 µM. It also gave a TGI (TK-10 renal) of over 100 µM, a TGI (U251 CNS) of over 100 µM and a TGI (UACC-257 melanoma) of over 100 µM. The TGI (UO-31 renal) was over 100 µM.

`c1ccc2sc(C3(N4CCC5(CC4)OCCO5)CCCCC3)cc2c1` showed a TGI (786-0 renal) of over 100 µM, a TGI (A498 renal) of over 100 µM and a TGI (A549 NSCLC) of over 100 µM. The TGI (ACHN renal) was over 100 µM, the TGI (BT-549 breast) was over 100 µM and the TGI (CAKI-1 renal) was over 100 µM. The TGI (CCRF-CEM leukemia) was over 100 µM, the TGI (COLO 205 colon) was over 100 µM and the TGI (DU-145 prostate) was over 100 µM. For the same molecule, the TGI (EKVX NSCLC) was over 100 µM, the TGI (HCC-2998 colon) was 90.9 µM and the TGI (HCT-116 colon) was over 100 µM. For the same molecule, the TGI (HCT-15 colon) was over 100 µM, the TGI (HL-60(TB) leukemia) was 54.9 µM and the TGI (HOP-62 NSCLC) was over 100 µM. The TGI (HOP-92 NSCLC) was over 100 µM, the TGI (HS 578T breast) was over 100 µM and the TGI (HT29 colon) was 86.4 µM. It also gave a TGI (IGROV1 ovarian) of over 100 µM, a TGI (K-562 leukemia) of over 100 µM and a TGI (KM12 colon) of over 100 µM. It also gave a TGI (LOX IMVI melanoma) of over 100 µM, a TGI (M14 melanoma) of over 100 µM and a TGI (MALME-3M melanoma) of over 100 µM. It also gave a TGI (MCF7 breast) of over 100 µM, a TGI (MDA-MB-435) of over 100 µM and a TGI (MDA-N) of over 100 µM. It also gave a TGI (MOLT-4 leukemia) of over 100 µM, a TGI (NCI-H226 lung) of over 100 µM and a TGI (NCI-H23 lung) of over 100 µM. For the same molecule, the TGI (NCI-H460 lung) was over 100 µM, the TGI (NCI-H522 lung) was over 100 µM and the TGI (NCI/ADR-RES ovarian) was over 100 µM. The TGI (OVCAR-3 ovarian) was over 100 µM, the TGI (OVCAR-4 ovarian) was over 100 µM and the TGI (OVCAR-5 ovarian) was over 100 µM. For the same molecule, the TGI (OVCAR-8 ovarian) was over 100 µM, the TGI (RPMI-8226 leukemia) was over 100 µM and the TGI (RXF 393 renal) was over 100 µM. For the same molecule, the TGI (SF-268 CNS) was over 100 µM, the TGI (SF-295 CNS) was over 100 µM and the TGI (SF-539 CNS) was over 100 µM. For the same molecule, the TGI (SK-MEL-28 melanoma) was over 100 µM, the TGI (SK-MEL-5 melanoma) was over 100 µM and the TGI (SK-OV-3 ovarian) was over 100 µM. The TGI (SN12C renal) was over 100 µM, the TGI (SNB-19 CNS) was over 100 µM and the TGI (SNB-75 CNS) was over 100 µM. The TGI (SR leukemia) was over 100 µM, the TGI (SW-620 colon) was over 100 µM and the TGI (T-47D breast) was over 100 µM. For the same molecule, the TGI (TK-10 renal) was over 100 µM, the TGI (UACC-257 melanoma) was over 100 µM and the TGI (UACC-62 melanoma) was over 100 µM. The TGI (UO-31 renal) was over 100 µM.
